Consider one molecule from US6482412B1, “Polypeptide having human HIV inhibitory activity, a gene encoding the polypeptide, a method to produce the polypeptide” (Gakkou Houjin Kitasato Gakuen, priority 1999, dated 2002).

Converted amounts (≈) assume the structure as drawn.

Holding throughout (format): cell-based
The nature of data set [1]: Cytotoxicity on uninfected MT-4 cells, MTT method. To be noted: human, five days. How it is done:
(§1) Anti-HIV activity was measured from suppression of cytopathic effect caused by HIV infection. The HIV infected MT-4 cell (2.5×10^4 cells/well, degree of multiple infection: 0.01) was added to 96 well titer plate immediately after infection. At the same time, K97-0003 peptide of various concentration was also added to the plate. In order to examine cytopathic effect of K97-0003 peptide on MT-4 cell, cells uninfected by HIV was incubated with K97-0003 peptide of various concentrations in the same manner. After five days of incubation at 37° C. in a CO2 incubator, the number of cell survived was measured by MTT method.
(2) CC50: It is the concentration of K97-0003 peptide that causes cytotoxicity to 50% of cells, and is the parameter of cytotoxic effect of the peptide.
Background: Formazan colour is commonly taken as a measure of viable cells.

The test system of the next data set is HIV infected MT-4 cell. As to the kind of experiment: Anti-HIV activity by suppression of cytopathic effect, MTT method. To be noted: Human immunodeficiency virus 1, MT4, 120 h, read-out: BC50. How it is done: as §1
(1) EC50: It is the concentration of K97-0003 peptide which inhibits 50% of the cytotoxicity by HIV infection, and is the parameter of anti-HIV activity of the peptide.
A general note: Protection from cytopathic effect is a common read-out in antiviral testing.

Data set [2] concerns syncytium formation by fusion of HeLa/CD4/LTR cells and HeLa135/env (T-tropic HIV-1)/Tat cells. The experiment in a line: cells. The note with it: Human immunodeficiency virus 1, HeLa, read-out: IC50 of syncytium formation ability. How it is done: 50 μl of HeLa/CD4 /LTR cell suspension prepared to 1.6×10^5 cells/ml was inoculated into every each well of 96 well plate (IWAKI MICROPLATE 96well), and 10 μl of the sample, diluted in a series of concentration with phosphate buffer physiological saline, was added to every each well. Then, 50 μl of HeLa135/env(envelope glycoprotein: originated from T-tropic HIV-1)/Tat cell suspension prepared to 1.6×10^5 cells/ml was dispensed to every well, and incubated in an incubator at 37° C. under 5% CO2 air current for 24 hours. After removal of the culture fluid from each well, 20 μl of cell lysis solution was added to every each well, and the plate was left at the room temperature for about 10 minutes.
Continuously, 100 μl of chromogenic substrate solution (Z-buffer: 80 μl+4 mg/ml o-nitrophenyl-β-D-glactopyranoside:20 μl) was added to each well, and reacted in the incubator at 37° C. […] After 80 minutes, 25 μl of reaction stop solution (2M Na2CO3) was added to it, and the absorbance at 405 nm was measured using colorimeter (Organ ON SystemMicrowell System Reader 510). Syncytium formation ability was calculated from the obtained absorbance by the following formula.
Syncytium formation ability=the absorbance of the well with sample addition/absorbance of control×100

Broadly, the CC50 is the concentration at which the toxic effect on the cells reaches its halfway point. In general, IC50 refers to the concentration that gives 50% inhibition.

In the case of `CN1C(=O)[C@@H](c2cc(Cl)c(O)c(Cl)c2)NC(=O)[C@@H]2NC(=O)[C@@H](c3cc(Cl)c(O)c(Cl)c3)NC(=O)[C@H](NC(=O)C(=O)c3cc(Cl)c(O)c(Cl)c3)Cc3c[nH]c4c(cccc34)-c3cc2cc(c3O)Oc2ccc(cc2)C[C@H]1C(=O)N[C@@H](C(=O)O)c1ccc(O)cc1` [Chloropeptine, chloropeptin, reference compound], in data set [1], the CC50 at 5 days is greater than 600000 nM. For the same molecule, the EC50 in the data set with HIV infected MT-4 cell was 1600 nM. Also, the half-inhibitory concentration (IC50) in data set [2] is 1.7 µg/mL (≈ 1.28 µM).
